Laboratory results: patent publication US4122088A, “Dicarboxyphenyl substituted bis-sulfonylimino dibenzodithiazepine tetroxides” (American Cyanamid Company, priority 1977, dated 1978)
Where a name gives a salt, the structure may show the parent alone. Read-outs that look alike come from different tables or passages of the source.

What was measured:
[1] = tested on: complement system; conditions: literature reports; cited from earlier work
[2] = tested on: human C1; assay: Test, Code 026 (C1 inhibitor): ability of activated human C1 to destroy fluid phase human C2 in the presence of C4; format: biochemical; conditions: serial dilution assay, two-fold dilutions; higher well number indicates higher activity
Description: (§1) An active inhibitor protects C2 from C1 and C4; (ii) Test, Code 035 (C3-C9 inhibitor) - This test determines the ability of the late components of human complement (C3-C9) to lyse EAC 142 in the presence of appropriate dilutions of the test compound. An active inhibitor protects EAC 142 from lysis by human C3-C9; (iii) Test, Code 036 (C-Shunt inhibitor) - In this test human erythrocytes rendered fragile are lysed in autologous serum via the shunt pathway activated by cobra venom factor in the presence of appropriate dilutions of the test compound. Inhibition of the shunt pathway results in failure of lysis; (iv) Forssman Vasculitis Test -- Here, the well known complement dependent lesion, Forssman vasculitis, is produced in guinea pigs by intradermal injection of rabbit anti-Forssman antiserum. […]

[3] = tested on: shunt pathway; assay: Test, Code 036 (C-Shunt inhibitor): lysis of human erythrocytes in autologous serum via the shunt pathway activated by cobra venom factor; format: cell-based; conditions: serial dilution assay, two-fold dilutions; higher well number indicates higher activity
Description: as §1

[4] = tested on: late components of human complement (C3-C9); assay: Test, Code 035 (C3-C9 inhibitor): lysis of EAC 142 by late components of human complement; format: cell-based; set-up: key: Negative; conditions: serial dilution assay, two-fold dilutions; higher well number indicates higher activity
Description: as §1

[5] = tested on: whole complement; assay: Complement Level Reduction Test: whole complement in serum of dosed guinea pigs, capillary tube assay; format: in vivo; conditions: Cavia porcellus, ip, guinea pig, i.p., versus simultaneous controls
Description: An active inhibitor protects C2 from C1 and C4; (ii) Test, Code 035 (C3-C9 inhibitor) - This test determines the ability of the late components of human complement (C3-C9) to lyse EAC 142 in the presence of appropriate dilutions of the test compound. An active inhibitor protects EAC 142 from lysis by human C3-C9; (iii) Test, Code 036 (C-Shunt inhibitor) - In this test human erythrocytes rendered fragile are lysed in autologous serum via the shunt pathway activated by cobra venom factor in the presence of appropriate dilutions of the test compound. Inhibition of the shunt pathway results in failure of lysis; (iv) Forssman Vasculitis Test -- Here, the well known complement dependent lesion, Forssman vasculitis, is produced in guinea pigs by intradermal injection of rabbit anti-Forssman antiserum. The lesion is measured in terms of diameter, edema and hemorrhage and the extent to which a combined index of these is inhibited by prior intraperitoneal injection of the test compound at 200 mg/kg is then reported, unless otherwise stated; (v) Forssman Shock Test -- Lethal shock is produced in guinea pigs by an i.v. injection of anti-Forssman antiserum and the harmonic mean death time of treated guinea pigs is compared with that of simultaneous controls; (vi) Complement Level Reduction Test - In this test, the above dosed guinea pigs, or others, are bled for serum and the complement level is determined in undiluted serum by the capillary t3be method of U.S. Pat. No. 3,876,376 and compared to undosed control guinea pigs; and (vii) Cap 50 Test -- Here, appropriate amounts of the test compound are added to a pool of guinea pig serum in vitro, after which the undiluted serum capillary tube assay referred to above is run. The concentration of compound inhibiting 50% is reported.
With reference to Table I, guinea pigs weighing about 300 g were dosed intravenously (i.v.) or intraperitoneally (i.p.) with 200 mg/kg of the test compound dissolved in saline and adjusted to pH 7-8. […] Percent inhibition was calculated by comparison with simultaneous controls. […]

[6] = New England Journal of Medicine, 286, 808-812 (1972); cited from earlier work

Molecule: Cc1ccc(C(=O)Nc2ccc(S(=O)(=O)O)c3cc(S(=O)(=O)O)cc(S(=O)(=O)O)c23)cc1NC(=O)c1cccc(NC(=O)Nc2cccc(C(=O)Nc3cc(C(=O)Nc4ccc(S(=O)(=O)O)c5cc(S(=O)(=O)O)cc(S(=O)(=O)O)c45)ccc3C)c2)c1 [Suramin]
- anticomplementary effect / inhibition of the complement system [1]: competitive inhibitor of the complement system

Molecule: O=C(O)c1cc(NS(=O)(=O)c2ccc3c(c2)S(=O)(=O)N(c2cc(C(=O)O)cc(C(=O)O)c2)S(=O)(=O)c2cc(S(=O)(=O)Nc4cc(C(=O)O)cc(C(=O)O)c4)ccc2-3)cc(C(=O)O)c1 [5,5'-{[6-(3,5-Dicarboxyphenyl)dibenzo[d,f][1,3,2]-dithiazepine-3,9-diyl]bis(sulfonylimino)}diisophthalic acid hexasodium salt S,S,S',S'-tetroxide]
- C1 026* Wells [2]: +5 Wells
- Shunt Inhibition 036* Wells [3]: +3 Wells
- C-Late 035* Wells [4]: N
- inhibition at 200 mg/kg ([5]; 0.5 h, 30 min, read-out: In Vivo Activity (Guinea Pig) % Inhibition, Intraperitoneal, 30 minutes): -23%
- inhibition at 200 mg/kg ([5]; 1 h, 60 min, read-out: In Vivo Activity (Guinea Pig) % Inhibition, Intraperitoneal, 60 minutes): -57%
- inhibition at 200 mg/kg ([5]; 2 h, 120 min, read-out: In Vivo Activity (Guinea Pig) % Inhibition, Intraperitoneal, 120 minutes): -42%

Molecule: heparin
- anticomplementary effect / inhibition of the complement system [1]: anticomplementary effect

Molecule: NC[C@H]1CC[C@H](C(=O)O)CC1 [tranexamic acid]
- use in the treatment of hereditary angioneurotic edema [6]: used with success

Molecule: NCCCCCC(=O)O [epsilon-aminocaproic acid]
- use in the treatment of hereditary angioneurotic edema [6]: used with success

Molecule: Nc1ccc2cc(S(=O)(=O)O)cc(O)c2c1N=Nc1ccc(NC(=O)Nc2ccc(N=Nc3c(N)ccc4cc(S(=O)(=O)O)cc(O)c34)c(S(=O)(=O)O)c2)cc1S(=O)(=O)O [chlorazol fast pink, 3,3'-ureylenebis-[6-(2-amino-8-hydroxy-6-sulfo-1-naphthylazo)] benzenesulfonic acid, tetrasodium salt]
- anticomplementary effect / inhibition of the complement system [1]: anticomplementary effect
